# In publication PMC9841524, “Structure-Based Rational Design of Small α-Helical Peptides with Broad-Spectrum Activity against Multidrug-Resistant Pathogens” (Journal of Medicinal Chemistry, 2022):
# Like-named read-outs stand apart in the source and are kept apart here. Where no end group is shown, it is not given here.
# What was measured:
# [1] = test system: K. pneumoniae (ATCCBAA-1705); assay: MIC, standard microtiter dilution (CLSI); type: cell-based, Klebsiella pneumoniae; settings: broth microdilution (CLSI), CAMHB, 37 °C, 24 h
# Procedure: (§1) Description of the characteristics and growth conditions of various bacterial strains used in the study are provided in the Supporting Information (Table S3). Antibacterial susceptibility testing was carried out using a standard microtiter dilution method recommended by the clinical and laboratory standard institute (CLSI) and measured as a minimum inhibitory concentration (MIC), the lowest peptide concentration that inhibited bacterial growth. Briefly, the overnight grown cultures in the recommended broth for each bacterial strain were diluted in cation-adjusted Mueller Hinton Broth (CAMHB) to give an inoculum of 10^6 colony-forming units (CFU)/mL. A 2-fold serially diluted test peptide solution (100 μL) was added to the microtiter plates. After adding bacterial suspension (100 μL), the plates were incubated at 37 °C for 24 h, and the MICs were determined. The same protocol was used to determine the MICs in the presence of salts and serum except using the media supplemented with various cationic salts (150 mM NaCl, 4.5 mM KCl, 6 mM NH4Cl, 1 mM MgCl2, and 2 mM CaCl2) or 25% FBS. The data was acquired from three independent assays performed in triplicate.
# (§2) The bacterial strains employed in this study were obtained from the American Type Culture Collection (ATCC). Each strain was propagated as recommended by the ATCC, and each strain was stored as a frozen glycerol stock at -80°C. A bacterial colony was grown on the appropriate agar as indicated in Table S1 and was used to inoculate the appropriate broth. The culture was incubated at the appropriate conditions, as mentioned in Table S1. Following the incubation, the culture was diluted to an optical density 625 nm (OD625) of 0.1 in cation adjusted Mueller Hinton Broth (CAMHB), which is equivalent to 1 × 10^8 CFU/mL. The culture was further diluted to 1 × 10^6 CFU/mL, which was used to conduct the MIC determination assay. For the S. pneumoniae strains, CAMHB + 2.5% lysed horse blood was required for the assay. The strains with their […]
# (§3) Table S3. Description of the characteristics and growth conditions of various bacterial strains
# [2] = test system: P. aeruginosa (ATCC 27883); assay: MIC, standard microtiter dilution (CLSI); type: cell-based, Pseudomonas aeruginosa; settings: broth microdilution (CLSI), CAMHB, 37 °C, 24 h
# Procedure: as §1, §2, §3
# [3] = test system: human red blood cells (hRBCs); assay: Hemolytic assay; type: cell-based; settings: 2 h, 37 °C
# Procedure: The hemolytic activity of all peptides (1a–8d) was determined using hRBC. The assay was conducted by adding 75 μL of 2-fold serially diluted peptides to 75 μL of hRBC suspension (4% in PBS). The plates were incubated for 2 h at 37 °C without agitation. In order to determine the hemolysis at each tested concentration of peptides, the plate was centrifuged, and 100 μL of the supernatant was transferred to another 96-well plate to determine hemoglobin release spectrophotometrically at 567 nm. Percent hemolysis was calculated by the following formula [drawing 1] where A represents the absorbance of the peptide sample at 567 nm and A0 and At represent zero percent and 100% hemolysis determined in phosphate buffer saline and 1% Triton X-100, respectively.
# S. aureus (ATCC 29213) = assay: MIC, standard microtiter dilution (CLSI); type: cell-based; settings: broth microdilution (CLSI), CAMHB, 37 °C, 24 h
# Procedure: as §1, §2, §3
# E. coli (ATCC 25922) = settings: broth microdilution (CLSI), CAMHB, 37 °C, 24 h
# Procedure: as §1, §2, §3
# MRSA (ATCC BAA-1556) = settings: broth microdilution (CLSI), CAMHB, 37 °C, 24 h
# Procedure: as §1, §2, §3
# [4] = 10^6 CFU/mL, highest MIC of three independent experiments in triplicate
# [5] = hRBC suspension 4% in PBS, hemoglobin release at 567 nm, 1% Triton X-100 = 100%
# [6] = value in parentheses (μM), hRBC 4% in PBS, 567 nm
Substance,"MIC, K. pneumoniae (ATCCBAA-1705) [1, 4] [mg/L]","MIC, K. pneumoniae (ATCCBAA-1705) ([1]; value in parentheses (μM)) [µM]","MIC, P. aeruginosa (ATCC 27883) [2, 4] [mg/L]","MIC, P. aeruginosa (ATCC 27883) ([2]; value in parentheses (μM)) [µM]","HC50 (concentration at which 50% hemolysis was observed) [3, 5] [µg/mL]","HC50 (concentration at which 50% hemolysis was observed) [3, 6] [µM]","MIC, S. aureus (ATCC 29213) (S. aureus (ATCC 29213); [4]) [mg/L]","MIC, S. aureus (ATCC 29213) (S. aureus (ATCC 29213); value in parentheses (μM)) [µM]","MIC, E. coli (ATCC 25922) (E. coli (ATCC 25922); [4]) [mg/L]","MIC, E. coli (ATCC 25922) (E. coli (ATCC 25922); value in parentheses (μM)) [µM]","MIC, MRSA (ATCC BAA-1556) (MRSA (ATCC BAA-1556); [4]) [mg/L]","MIC, MRSA (ATCC BAA-1556) (MRSA (ATCC BAA-1556); value in parentheses (μM)) [µM]"
RWWRRAWRAA-NH2 [4c],> 100,> 70.74,> 100,> 70.74,> 500,> 353.69,> 100,> 70.74,> 100,> 70.74,> 100,> 70.74
RWIRRWIRWWR-NH2 [5c],100,56.52,50,28.26,> 500,> 282.62,50,28.26,100,56.52,50,28.26
RWARRAWRAW-NH2 [4e],> 100,> 70.74,> 100,> 70.74,> 500,> 353.69,> 100,> 70.74,> 100,> 70.74,> 100,> 70.74
H-RAWRRAWRAW-NH2 [4a],> 100,> 70.74,> 100,> 70.74,> 500,> 353.69,> 100,> 70.74,> 100,> 70.74,> 100,> 70.74
ARRWWRRW-NH2 [2e],> 100,> 78.65,> 100,> 78.65,> 500,> 393.23,100,78.65,> 100,> 78.65,100,> 78.65
RAWRRWWRA-NH2 [3b],> 100,> 74.48,> 100,> 74.48,> 500,> 372.42,> 100,> 74.48,> 100,> 74.48,> 100,> 74.48
RWWRAAWRR-NH2 [3d],> 100,> 74.48,> 100,> 74.48,> 500,> 372.42,> 100,> 74.48,> 100,> 74.48,> 100,> 74.48
WRRWARRW-NH2 [2d],> 100,> 78.65,> 100,> 78.65,> 500,> 393.23,> 100,> 78.65,> 100,> 78.65,> 100,> 78.65
Ac-RWLRRWLRWWR-NH2 [5f],50,27.61,25,13.80,65,35.89,12.5,6.90,50,27.61,12.5,6.90
H-RAWRRWARAW-NH2 [4d],> 100,> 70.74,> 100,> 70.74,> 500,> 353.69,> 100,> 70.74,> 100,> 70.74,> 100,> 70.74
